Measurements as given in patent publication US20210115104A1, “AMYLIN ANALOGUES” (Zealand Pharma A/S, priority 2015, published 2021).
*1 amine or outer side, *2 acyl side, *3 side chain or, on linkers, in order; H or OH if unused. Where a SMILES comes first, the peptide text is derived from it. Bridges are numbered along the chain shown (N, C = ends). [ ]: non-standard residue; d: D form. The star is where a group is joined. C20 diacid = O=C(O)CCCCCCCCCCCCCCCCCCC(=O)*; γGlu = O=C(O)[C@H](CCC(=O)[*:2])N[*:1]; Hyp = O=C(O)[C@@H]1C[C@@H](O)CN1; NMeI = CC[C@H](C)[C@H](NC)C(=O)O; Sar = CNCC(=O)O

How the values were obtained:
[1] = Assessment of chemical stability (RP-HPLC normalized purity); assay type: physicochemical; conditions: 7 days, 40° C., Table 1; for Normalized purity after 7 days, 40° C., pH 4: pH 4, 0.2 mg/ml; for Normalized purity after 7 days, 40° C., pH 6: pH 6, 0.2 mg/ml; for Normalized purity after 7 days, 40° C., pH 7.5: pH 7.5, 0.2 mg/ml; for Normalized purity after 7 days, 40° C., pH 9: pH 9, 0.2 mg/ml
In short: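 Purity after 7 days at 40° C is expressed relative to T=0 (set to 100) for each pH. Samples at 0.2 mg/ml, pH 4, 6, 7.5 or 9, analyzed by RP-HPLC with UV 220 nm on C8 (ammonium formate) or C18 (TFA) gradients.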

[2] = Assessment of physical stability (Thioflavin T fibrillation); assay type: physicochemical; set-up: key: FND = fibrillation not detected; FD = fibrillation detected; conditions: 1 mg/ml, 40° C., ThT; for Fibrillation pH 4.0 (Ac): 50 mM acetate buffer pH 4.0, 96 hours; for Fibrillation pH 7.0 (His): 50 mM histidine buffer pH 7.0, 96 hours; for Fibrillation pH 7.0 (Phos.): 50 mM phosphate buffer pH 7.0, 96 hours
In short: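 Fibrillation lag-time, in hours, taken where regressions of the initial stable phase and the growth phase intersect. ThT (40 μM) fluorescence monitored at 40 °C for 96 h, 10-min reads each preceded by 300 s mixing. Peptide at 1 mg/ml in 50 mM buffers: phosphate or histidine pH 7.0, acetate pH 4.0.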

[3] = molecular target: T1, human calcitonin receptor (hCTR2) (Homo sapiens, UniProt P30988); experiment: hCTR2 cAMP assay (AlphaScreen) in COS7 cells; assay type: cell-based; conditions: cAMP induction, COS7 cells expressing hCTR2; Table 1; read-out: hCTR2 EC50
T1 construct: expressed in transfected cells
T1 sequence (P30988 25-474): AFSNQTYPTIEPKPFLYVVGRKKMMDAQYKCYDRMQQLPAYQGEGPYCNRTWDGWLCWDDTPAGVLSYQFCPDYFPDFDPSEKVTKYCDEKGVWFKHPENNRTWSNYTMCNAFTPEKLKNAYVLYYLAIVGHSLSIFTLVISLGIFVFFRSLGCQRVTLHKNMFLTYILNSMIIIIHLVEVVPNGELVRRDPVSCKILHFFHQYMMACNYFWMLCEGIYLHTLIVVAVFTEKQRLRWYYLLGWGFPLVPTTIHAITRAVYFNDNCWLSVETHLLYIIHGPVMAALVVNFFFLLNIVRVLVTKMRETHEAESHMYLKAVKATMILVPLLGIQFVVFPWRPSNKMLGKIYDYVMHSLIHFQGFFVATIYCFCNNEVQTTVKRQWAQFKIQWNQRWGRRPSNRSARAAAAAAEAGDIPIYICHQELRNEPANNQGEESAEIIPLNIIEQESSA
Text: The cell line COS7, originating from African Green Monkey kidney fibroblast cells, was used for establishment of the stable cell lines described below. The COS7 cellular background was used due to it being RAMP naïve, and as such it provides the best available system for testing of the monomeric hCTR and different heterodimeric amylin receptor subtypes functionally generated by introduction of the individual RAMPs.
A cell line expressing the human calcitonin receptor (hCTR2) was generated in the COS7 cellular background as stable clones. In brief, hCTR2 (GI: 4502547) was amplified by PCR using primers encoding terminal restriction sites for subcloning. The 5′-end primers additionally encoded a near Kozak consensus sequence to ensure efficient translation. The fidelity of the DNA encoding the receptor was confirmed by DNA sequencing. The PCR products encoding the receptor were subcloned into a mammalian expression vector containing a neomycin (G418) resistance marker. The mammalian expression vector encoding the receptor was transfected into COS7 cells by a standard liposome transfection method. 48 hours post-transfection, cells were seeded for limited dilution cloning and selected with 1 mg/ml G418 in the culture medium. After 3 weeks, surviving colonies of hCTR2-expressing cells were picked, propagated and tested in the amylin efficacy assay as described in Example 3 below. One hCTR2-expressing clone was chosen for compound profiling.
In vitro activity of test peptides at the hCTR2 and hAMYR3 receptors was assessed by measuring the induction of cAMP following stimulation of the receptor using the AlphaScreen® cAMP Assay kit from Perkin-Elmer.
Briefly, COS7 cells expressing hCTR2 (see Example 2, above) were seeded at 30-40,000 cells per well in 96-well microtiter plates coated with 0.01% poly-L-lysine, and grown for 1 day in culture in 100 μl growth medium [DMEM, 10% FCS, Penicillin (100 IU/ml), Streptomycin (100 μg/ml)]. On the day of analysis, growth medium was removed and the cells were washed once with 200 μl Tyrode buffer [Tyrode's Salts (9.6 g/I), 10 mM HEPES, pH 7.4]. Cells were incubated in 100 μl Tyrode buffer containing increasing concentrations of test peptides, 100 µM IBMX and 0.1% casein for 15 min at 37° C. The reaction was stopped by carefully decanting off the compound/buffer medium and replacing it with lysis/detection buffer (80 μl 0.1% w/v BSA, 5 mM HEPES, 0.3% v/v Tween-20 in deionized water). After incubation at room temperature for 10 min., the cAMP content of the resulting cell lysate was estimated according to the AlphaScreen® cAMP Assay manufacturer's instructions. EC50 values were estimated by computer-aided curve fitting using the 4-parameter logistic (4PL) non-linear model.

| Normalized purity after 7 days, 40° C., pH 4 [1] | Normalized purity after 7 days, 40° C., pH 6 [1] | Normalized purity after 7 days, 40° C., pH 7.5 [1] | Normalized purity after 7 days, 40° C., pH 9 [1] | Fibrillation pH 4.0 (Ac) [2] | Fibrillation pH 7.0 (His) [2] | Fibrillation pH 7.0 (Phos.) [2] | EC50 [3] | SMILES |
| --- | --- | --- | --- | --- | --- | --- | --- | --- |
| A (A = >90%) | A (A = >90%) | B (B = 70-90%) | B (B = 70-90%) | FND | FND | FND | 0.16 nM | CC[C@H](C)[C@@H](C(=O)N[C@@H](CC(C)C)C(=O)N[C@@H](CO)C(=O)N[C@@H](CO)C(=O)N[C@H](C(=O)N[C@@H](CCC(=O)O)C(=O)N[C@H](C(=O)NCC(=O)N[C@@H](CO)C(=O)N[C@@H](CC(N)=O)C(=O)N[C@H](C(=O)N1C[C@H](O)C[C@H]1C(N)=O)[C@@H](C)O)C(C)C)[C@@H](C)O)N(C)C(=O)[C@H](C)NC(=O)CN(C)C(=O)[C@H](Cc1ccccc1)NC(=O)[C@H](CCCNC(=N)N)NC(=O)[C@H](CCC(N)=O)NC(=O)[C@H](CC(C)C)NC(=O)[C@H](Cc1ccccc1)NC(=O)[C@H](Cc1c[nH]cn1)NC(=O)[C@H](C)NC(=O)[C@H](CC(C)C)NC(=O)[C@H](CCCNC(=N)N)NC(=O)[C@H](CCC(=O)O)NC(=O)[C@@H](NC(=O)[C@H](C)NC(=O)[C@@H]1CSSC[C@H](NC(=O)[C@H](CCCNC(=N)N)NC(=O)CC[C@H](NC(=O)CCCCCCCCCCCCCCCCCCC(=O)O)C(=O)O)C(=O)NCC(=O)N[C@@H]([C@@H](C)O)C(=O)N[C@@H](C)C(=O)N[C@@H]([C@@H](C)O)C(=O)N1)[C@@H](C)O [Compound 77, [19CD]-isoGlu-R-C( )-GTAT-C( )-ATERLAHFLQRF-Gly(Me)-A-Ile(Me)-LSSTEVGSNT-Hyp-NH2] ({C20 diacid-γGlu}-RCGTATCATERLAHFLQRF[Sar]A[NMeI]LSSTEVGSNT[Hyp]-NH2; disulfide 2-7) |
| A (A = >90%) | A (A = >90%) | A (A = >90%) | B (B = 70-90%) | FD | FD | FND | 0.073 nM | CC[C@H](C)[C@@H](C(=O)N[C@@H](CC(C)C)C(=O)N[C@@H](CO)C(=O)N[C@@H](CO)C(=O)N[C@H](C(=O)N[C@@H](CCC(=O)O)C(=O)N[C@H](C(=O)NCC(=O)N[C@@H](CO)C(=O)N[C@@H](CC(N)=O)C(=O)N[C@H](C(=O)N1CCC[C@H]1C(N)=O)[C@@H](C)O)C(C)C)[C@@H](C)O)N(C)C(=O)[C@H](C)NC(=O)CN(C)C(=O)[C@H](Cc1ccccc1)NC(=O)[C@H](CO)NC(=O)[C@H](CO)NC(=O)[C@H](CCCNC(=N)N)NC(=O)[C@H](Cc1c[nH]cn1)NC(=O)[C@H](CC(C)C)NC(=O)[C@H](Cc1ccccc1)NC(=O)[C@H](Cc1c[nH]cn1)NC(=O)[C@H](C)NC(=O)[C@H](CC(C)C)NC(=O)[C@H](CCCNC(=N)N)NC(=O)[C@H](CCC(N)=O)NC(=O)[C@@H](NC(=O)[C@H](C)NC(=O)[C@@H]1CSSC[C@H](NC(=O)[C@H](CCCNC(=N)N)NC(=O)CC[C@H](NC(=O)CCCCCCCCCCCCCCCCCCC(=O)O)C(=O)O)C(=O)N[C@@H](CC(N)=O)C(=O)N[C@@H]([C@@H](C)O)C(=O)N[C@@H](C)C(=O)N[C@@H]([C@@H](C)O)C(=O)N1)[C@@H](C)O [Compound 16, [19CD]-isoGlu-R-C( )-NTAT-C( )-ATQRLAHFLHRSSF-Gly(Me)-A-Ile(Me)-LSSTEVGSNTP-NH2] ({C20 diacid-γGlu}-RCNTATCATQRLAHFLHRSSF[Sar]A[NMeI]LSSTEVGSNTP-NH2; disulfide 2-7) |
| A (A = >90%) | A (A = >90%) | B (B = 70-90%) | B (B = 70-90%) | FND | FD | FND | 0.05 nM | CC[C@H](C)[C@@H](C(=O)N[C@@H](CC(C)C)C(=O)N[C@@H](CO)C(=O)N[C@@H](CO)C(=O)N[C@H](C(=O)N[C@@H](CCC(=O)O)C(=O)N[C@H](C(=O)NCC(=O)N[C@@H](CO)C(=O)N[C@@H](CC(N)=O)C(=O)N[C@H](C(=O)N1C[C@H](O)C[C@H]1C(N)=O)[C@@H](C)O)C(C)C)[C@@H](C)O)N(C)C(=O)[C@H](C)NC(=O)CN(C)C(=O)[C@H](Cc1ccccc1)NC(=O)[C@H](CO)NC(=O)[C@H](CO)NC(=O)[C@H](CCCNC(=N)N)NC(=O)[C@H](CCC(N)=O)NC(=O)[C@H](CC(C)C)NC(=O)[C@H](Cc1ccccc1)NC(=O)[C@H](Cc1c[nH]cn1)NC(=O)[C@H](C)NC(=O)[C@H](CC(C)C)NC(=O)[C@H](CCCNC(=N)N)NC(=O)[C@H](CCC(N)=O)NC(=O)[C@@H](NC(=O)[C@H](C)NC(=O)[C@@H]1CSSC[C@H](NC(=O)[C@H](CCCNC(=N)N)NC(=O)CC[C@H](NC(=O)CCCCCCCCCCCCCCCCCCC(=O)O)C(=O)O)C(=O)N[C@@H](CC(N)=O)C(=O)N[C@@H]([C@@H](C)O)C(=O)N[C@@H](C)C(=O)N[C@@H]([C@@H](C)O)C(=O)N1)[C@@H](C)O [Compound 58, [19CD]-isoGlu-R-C( )-NTAT-C( )-ATQRLAHFLQRSSF-Gly(Me)-A-Ile(Me)-LSSTEVGSNT-Hyp-NH2] ({C20 diacid-γGlu}-RCNTATCATQRLAHFLQRSSF[Sar]A[NMeI]LSSTEVGSNT[Hyp]-NH2; disulfide 2-7) |
| A (A = >90%) | A (A = >90%) | A (A = >90%) | A (A = >90%) | FND | FND | FND | 0.2 nM | CC[C@H](C)[C@@H](C(=O)N[C@@H](CC(C)C)C(=O)N[C@@H](CO)C(=O)N[C@@H](CO)C(=O)N[C@H](C(=O)N[C@@H](CCC(=O)O)C(=O)N[C@H](C(=O)NCC(=O)N[C@@H](CO)C(=O)NCC(=O)N[C@H](C(=O)N1C[C@H](O)C[C@H]1C(N)=O)[C@@H](C)O)C(C)C)[C@@H](C)O)N(C)C(=O)[C@H](C)NC(=O)CN(C)C(=O)[C@H](Cc1ccccc1)NC(=O)[C@H](CO)NC(=O)[C@H](CO)NC(=O)[C@H](CCCNC(=N)N)NC(=O)[C@H](CCC(N)=O)NC(=O)[C@H](CC(C)C)NC(=O)[C@H](Cc1ccccc1)NC(=O)[C@H](Cc1c[nH]cn1)NC(=O)[C@H](C)NC(=O)[C@H](CC(C)C)NC(=O)[C@H](CCCNC(=N)N)NC(=O)[C@H](CCC(=O)O)NC(=O)[C@@H](NC(=O)[C@H](C)NC(=O)[C@@H]1CSSC[C@H](NC(=O)[C@H](CCCNC(=N)N)NC(=O)CC[C@H](NC(=O)CCCCCCCCCCCCCCCCCCC(=O)O)C(=O)O)C(=O)N[C@@H](CCC(N)=O)C(=O)N[C@@H]([C@@H](C)O)C(=O)N[C@@H](C)C(=O)N[C@@H]([C@@H](C)O)C(=O)N1)[C@@H](C)O [Compound 90, [19CD]-isoGlu-R-C( )-QTAT-C( )-ATERLAHFLQRSSF-Gly(Me)-A-Ile(Me)-LSSTEVGSGT-Hyp-NH2] ({C20 diacid-γGlu}-RCQTATCATERLAHFLQRSSF[Sar]A[NMeI]LSSTEVGSGT[Hyp]-NH2; disulfide 2-7) |
